How the values were obtained:
[1] = biological target: purified carbonic anhydrase (Homo sapiens, UniProt P00918); test: Enzymatic carbonic anhydrase inhibition assay (modification of Maren's micromethod); type: biochemical; settings: relative to acetazolamide control = 100%
Description: CAI efficacy and potency are assessed using an enzymatic method. […] Essentially, a reaction volume of 0.8 mL containing a carbonate/bicarbonate buffer, phenol red, purified carbonic anhydrase, and inhibitor is maintained at 0° and saturated with CO2 by constant bubbling. The time required for acidification to a color change endpoint is monitored as the dependent variable.

[2] = oral administration; cited from earlier work
[3] = topical CAI, lowering of IOP; cited from earlier work

| Compound | Relative CA inhibition Potency [1] [%] | also measured |
| --- | --- | --- |
| NS(=O)(=O)c1nnc(NC(CCC(=O)O)C(=O)O)s1 (stereo not drawn) [Example 3] | 22 |  |
| NS(=O)(=O)c1nnc(NC(CCCC(=O)O)C(=O)O)s1 (stereo not drawn) [Example 4] | 20 |  |
| CC(=O)Nc1nnc(S(N)(=O)=O)s1 [acetazolamide, 2-acetylamino-1,3,4-thiadiazole-5-sulfonamide] |  | effect on IOP [2]: decrease IOP |
| Nc1ccc2nc(S(N)(=O)=O)sc2c1 [aminozolamide] |  | efficacy in clinical trial [3]: partially effective |

More lines, main results first:

| Relative CA inhibition Potency [1] [%] | Compound | also measured |
| --- | --- | --- |
| 48 | NS(=O)(=O)c1nnc(NC(CC(=O)O)C(=O)O)s1 (stereo not drawn) [Example 2] |  |
| 60 | NS(=O)(=O)c1nnc(NC(CCC(=O)O)CC(=O)O)s1 (stereo not drawn) [Example 5] |  |

From patent US5055480A, “Topically active ocular gem-diacylthiadiazole sulfonamide carbonic anhydrase inhibitors” (Research Corporation Technologies, Inc., priority 1990, dated 1991)
